According to patent publication US8927500B2, “Peptidomimetic macrocycles” (Aileron Therapeutics, Inc., priority 2012, dated 2015):

What was measured:
MDM2 = MDM2 (Homo sapiens, UniProt Q00987); assay: Competitive fluorescence polarization assay for MDM2; assay type: binding; details: competitive FP assay, MDM2; for IC50: read-out: IC50 (MDM2); for Ki: read-out: Ki (MDM2)
MDMX = biological target: T1, MDMX (Homo sapiens, UniProt O15151); assay: Competitive fluorescence polarization assay for MDMX; assay type: binding; details: competitive FP assay; for IC50: read-out: IC50 (MDMX); for Ki: read-out: Ki (MDMX)
T1 sequence (O15151 1-125): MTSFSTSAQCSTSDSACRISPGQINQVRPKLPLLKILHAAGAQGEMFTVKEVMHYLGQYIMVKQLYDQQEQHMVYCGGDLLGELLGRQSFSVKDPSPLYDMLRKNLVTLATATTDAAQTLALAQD

Caspase 3 = Caspase 3 detection assay in SJSA1 cells; assay type: cell-based; details: 48 h, Caspase 3 activation over DMSO-treated cells; for caspase 0.3 uM: 0.3 uM peptide; for caspase 3 uM: 3 uM peptide; for caspase 10 uM: 10 uM peptide; for caspase 30 uM: 30 uM peptide
SJSA-1 cells = assay: Cell lysis by peptidomimetic macrocycles (LDH release); assay type: cell-based; details: 1 h at 37C

Sequence of MDM2 (Q00987 1-125): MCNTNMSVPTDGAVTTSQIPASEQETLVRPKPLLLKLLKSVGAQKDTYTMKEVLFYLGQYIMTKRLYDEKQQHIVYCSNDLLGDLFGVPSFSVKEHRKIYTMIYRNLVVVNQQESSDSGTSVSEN

SMILES	IC50 (MDM2) [nM]	Ki (MDM2) [nM]	IC50 (MDMX) [nM]	Ki (MDMX) [nM]	caspase 0.3 uM (Caspase 3)	caspase 3 uM (Caspase 3)	caspase 10 uM (Caspase 3)	caspase 30 uM (Caspase 3)	6.25 uM % Lysed cells (1 h LDH) (SJSA-1 cells) [%]	25 uM % Lysed cells (1 h LDH) (SJSA-1 cells) [%]	50 uM % Lysed cells (1 h LDH) (SJSA-1 cells) [%]
CC(=O)N[C@@H](CC(C)C)C(=O)N[C@H](C(=O)N[C@@H](Cc1ccccc1)C(=O)N[C@]1(C)CCCCCCC=CCCC[C@@](C)(C(=O)N[C@@H](CO)C(=O)NC(C)(C)C(=O)N[C@@H](C)C(=O)N[C@@H](C)C(N)=O)NC(=O)[C@H](CC(C)C)NC(=O)[C@H](CCC(N)=O)NC(=O)[C@H](C)NC(=O)[C@H](Cc2c[nH]c3ccccc23)NC(=O)[C@H](Cc2ccc(O)cc2)NC(=O)[C@H](C)NC1=O)[C@@H](C)O (single isomer, unassigned) [compound 26]	10 to 100	< 10	100 to 1000	10 to 100	1	1	3	14	2	−1	0
CC[C@H](C)[C@H](NC(=O)[C@H](C)NC(=O)[C@H](C)NC(=O)[C@]1(C)CCCC=CCCCCCC[C@@](C)(NC(=O)[C@H](Cc2ccccc2)NC(=O)[C@@H](NC(=O)[C@H](CC(C)C)NC(C)=O)[C@@H](C)O)C(=O)N[C@@H](C)C(=O)N[C@@H](Cc2ccc(O)cc2)C(=O)N[C@@H](Cc2c[nH]c3ccccc23)C(=O)N[C@@H](C)C(=O)N[C@@H](C)C(=O)N[C@@H](CC(C)C)C(=O)N1)C(=O)N[C@@H](C(N)=O)C(C)C (single isomer, unassigned) [compound 77]	10 to 100	< 10	100 to 1000	10 to 100	1	2	19	23	−2	1	−1
CC(=O)N[C@@H](CC(C)C)C(=O)N[C@H](C(=O)N[C@@H](Cc1ccccc1)C(=O)N[C@]1(C)CCCCCCC=CCCC[C@@](C)(C(=O)N[C@@H](CO)C(=O)N[C@@H](Cc2c[nH]c3ccccc23)C(=O)N[C@@H](C)C(N)=O)NC(=O)[C@H](CC(C)C)NC(=O)[C@H](CCC(N)=O)NC(=O)[C@H](C)NC(=O)[C@H](Cc2c[nH]c3ccccc23)NC(=O)[C@H](Cc2ccc(O)cc2)NC(=O)[C@H](C)NC1=O)[C@@H](C)O (single isomer, unassigned) [compound 120]	10 to 100	< 10	100 to 1000	10 to 100	2	11	20	30	0	0	6
CC(=O)N[C@@H](CC(C)C)C(=O)N[C@H](C(=O)N[C@@H](Cc1ccccc1)C(=O)N[C@]1(C)CCCCCCC=CCCC[C@@](C)(C(=O)N[C@@H](C)C(=O)N[C@@H](C)C(=O)N[C@@H](Cc2ccccc2)C(=O)N[C@H](C)C(N)=O)NC(=O)[C@H](CC(C)C)NC(=O)[C@H](CCC(N)=O)NC(=O)[C@H](C)NC(=O)[C@H](Cc2c[nH]c3ccccc23)NC(=O)[C@H](Cc2ccc(O)cc2)NC(=O)[C@H](CCC(=O)O)NC1=O)[C@@H](C)O (single isomer, unassigned) [compound 218]	< 10	< 10	100 to 1000	10 to 100	1	2	8	18	0	−4	1
